ChEMBL document CHEMBL1136514, “Synthesis and evaluation of delta-lactams (piperazones) as elastase inhibitors” (Bioorg Med Chem Lett, 2003)

What was measured:
[1] = target: T1, Chymotrypsin-like elastase family member 2A (Sus scrofa, UniProt P08419); experiment: Inhibitory concentration against porcine pancreatic elastase (PPE); No inhibition
T1 sequence (P08419 whole entry): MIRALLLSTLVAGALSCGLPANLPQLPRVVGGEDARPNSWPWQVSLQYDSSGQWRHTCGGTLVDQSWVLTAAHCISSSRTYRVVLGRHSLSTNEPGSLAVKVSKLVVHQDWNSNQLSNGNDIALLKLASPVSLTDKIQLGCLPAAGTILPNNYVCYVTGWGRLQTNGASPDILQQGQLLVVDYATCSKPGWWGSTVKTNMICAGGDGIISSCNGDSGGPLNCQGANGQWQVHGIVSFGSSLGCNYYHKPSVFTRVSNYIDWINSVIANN

[2] = target: T2, Neutrophil elastase (Homo sapiens, UniProt P08246); experiment: Inhibitory concentration against human neutrophil elastase (HNE); No inhibition
T2 sequence (P08246 whole entry): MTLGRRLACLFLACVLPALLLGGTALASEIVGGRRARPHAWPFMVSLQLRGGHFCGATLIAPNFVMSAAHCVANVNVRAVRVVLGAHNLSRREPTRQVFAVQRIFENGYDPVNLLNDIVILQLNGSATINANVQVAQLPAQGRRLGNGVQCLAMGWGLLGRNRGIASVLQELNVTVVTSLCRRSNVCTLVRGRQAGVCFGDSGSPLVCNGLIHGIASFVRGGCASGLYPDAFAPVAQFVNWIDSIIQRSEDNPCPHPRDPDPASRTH

[3] = target: T2, Neutrophil elastase; experiment: Inhibitory concentration against human neutrophil elastase (HNE)

Row | Compound | IC50 [1] | IC50 [2] | IC50 [3] [µM]
1 | Cc1ccc(S(=O)(=O)N2CCN(Cc3ccccc3)C(=O)[C@@H]2CC(C)C)cc1 |  |  | 28
2 | CC(C)C[C@@H]1NCCNC1=O | Not Active | Not Active | 
3 | CCC(C)[C@H]1C(=O)NCCN1C(=O)OC(C)(C)C (stereo partly specified) | Not Active | Not Active | 
4 | CC(C)C[C@@H]1NCCN(Cc2ccccc2)C1=O | Not Active | Not Active | 

Next, values leading:

Row | IC50 [1] | IC50 [2] | IC50 [3] [µM] | Compound
5 | Not Active | Not Active |  | CCC(C)[C@@H]1NCCN(Cc2ccccc2)C1=O (stereo partly specified)
6 | Not Active | Not Active |  | CCC(C)[C@H]1C(=O)N(S(=O)(=O)c2ccc(C)cc2)CCN1S(=O)(=O)c1ccc(C)cc1 (stereo partly specified)
7 | Not Active | Not Active |  | CC(C)C[C@H]1C(=O)NCCN1C(=O)OC(C)(C)C
8 |  | Not Active |  | CCC(C)[C@H]1C(=O)N(Cc2ccccc2)CCN1S(=O)(=O)c1ccc(C)cc1 (stereo partly specified)
9 | Not Active | Not Active |  | CCC(C)[C@@H]1NCCNC1=O (stereo partly specified)
